Earlier results on seven compounds are cited in patent US9353109B2, “Flindersia alkaloids, derivatives and analogs: compositions and methods for producing the same” (UNIVERSITY OF HOUSTON SYSTEM, priority 2012, dated 2016).

The data set deals with chloroquine-resistant falciparum strains. The note with it: at concentrations that do not affect mammalian cells' viability.

In the case of `C[C@@H]1CC[C@H]2[C@@H](C)C(=O)O[C@@H]3O[C@@]4(C)CC[C@@H]1[C@]32OO4` [artemisinin, reference compound], the “effectiveness toward chloroquine-resistant falciparum strains” value is recorded as “show effectiveness toward chloroquine-resistant falciparum strains”.
`CCN(CC)CCCC(C)Nc1ccnc2cc(Cl)ccc12` (stereo not shown) [chloroquine, reference compound]: the “effectiveness toward chloroquine-resistant falciparum strains” value is reported as “show effectiveness toward chloroquine-resistant falciparum strains”.
In the case of `CNCCc1c(/C=C/[C@@]2(C)C[C@H](C=C(C)C)c3c(CCNC)c4ccccc4n32)[nH]c2ccccc12` [flinderole A], the “effectiveness toward chloroquine-resistant falciparum strains” value is “show effectiveness toward chloroquine-resistant falciparum strains”.
In the case of `CC(C)=C[C@H]1C[C@](C)(/C=C/c2[nH]c3ccccc3c2CCN(C)C)n2c1c(CCN(C)C)c1ccccc12` [flinderole B], the “effectiveness toward chloroquine-resistant falciparum strains” value is reported as “show effectiveness toward chloroquine-resistant falciparum strains”.
As for `CC(C)=C[C@H]1C[C@@](C)(/C=C/c2[nH]c3ccccc3c2CCN(C)C)n2c1c(CCN(C)C)c1ccccc12` [flinderole C], the “effectiveness toward chloroquine-resistant falciparum strains” value was “show effectiveness toward chloroquine-resistant falciparum strains”.
In the case of `CNCCc1c(C2C3C(C=C(C)CC3(C)C)c3c(CCNC)c4ccccc4n32)[nH]c2ccccc12` (stereo not shown) [isoborreverine], the “effectiveness toward chloroquine-resistant falciparum strains” value is on record as “show effectiveness toward chloroquine-resistant falciparum strains”.
Regarding dimethylisoborreverine, the “effectiveness toward chloroquine-resistant falciparum strains” value was “show effectiveness toward chloroquine-resistant falciparum strains”.
